The values below come from patent US8431704B2, “Quinoline or isoquinoline substituted P2X7 antagonists” (Janssen Pharmaceutica NV, priority 2008, dated 2013).

The assay addresses T1, hP2X7 (Homo sapiens, UniProt Q99572).
T1 construct: expressed in transfected cells; host or cells: 1321N1 astrocytoma cells
T1 sequence (Q99572 1-595): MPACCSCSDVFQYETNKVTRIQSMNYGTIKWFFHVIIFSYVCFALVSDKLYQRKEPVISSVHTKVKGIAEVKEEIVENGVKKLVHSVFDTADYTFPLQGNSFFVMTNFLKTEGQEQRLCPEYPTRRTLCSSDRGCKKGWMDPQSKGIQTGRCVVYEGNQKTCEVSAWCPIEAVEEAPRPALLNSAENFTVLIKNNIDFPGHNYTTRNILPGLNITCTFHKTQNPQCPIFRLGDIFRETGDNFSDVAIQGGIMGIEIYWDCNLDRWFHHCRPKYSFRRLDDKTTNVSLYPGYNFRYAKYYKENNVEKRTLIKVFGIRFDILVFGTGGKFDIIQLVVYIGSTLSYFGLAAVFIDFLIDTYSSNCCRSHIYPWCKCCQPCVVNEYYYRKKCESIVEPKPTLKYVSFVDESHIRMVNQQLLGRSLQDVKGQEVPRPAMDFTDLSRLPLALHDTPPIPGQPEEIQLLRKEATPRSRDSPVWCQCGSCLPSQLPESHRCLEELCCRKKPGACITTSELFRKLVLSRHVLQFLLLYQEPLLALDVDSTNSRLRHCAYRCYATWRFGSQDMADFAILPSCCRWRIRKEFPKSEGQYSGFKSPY
Description: P2X7 antagonism: ligand-induced Ca2+ flux in 1321N1 astrocytoma cells overexpressing hP2X7. The format is cell-based. Conditions: pIC50 = -log(IC50), read-out: hP2RX7pIC50 (mean pIC50 values) (converted). The procedure:
Extracellular binding of ATP to P2X7 that is expressed in the cell-membrane opens the ligand gated cation channel and allows Ca^2+ entry into the cell. This ligand-induced Ca^2+ flux was measured in 1321N1 astrocytoma cells overexpressing hP2X7 for the compounds of the present invention.
The calcium assay kit used (Molecular Devices, R8090), provides a Ca^2+ sensitive dye together with a quenching dye. However, no specifications are given by the manufacturer. The kit most likely consists of a membrane permeable acetoxymethyl (AM) ester of a fluorescent Ca^2+ indicator, such as fluo-4 or fluo-3. Upon cellular uptake, the AM esters get cleaved by esterases, liberating the Ca^2+-sensitive dye which can then bind calcium. The dyes have an absorption spectrum compatible with excitation at 488 nm by argon laser sources and a large fluorescence intensity increase in response to Ca^2+ binding without an accompanying spectral shift. Emission wavelength is in the range of 510-560 nm.
The fluorescence, and thus the changes in intracellular [Ca^2+] in the 1321N1 cells was monitored in time before and after addition of the agonist. The effect of the antagonist was measured as % control and as IC50.

Turning to `O=C(NCC(c1cnc(-c2ccccc2)nc1)N1CCC(F)(F)CC1)c1cccc2nc(N3CCOCC3)ccc12` (stereo not drawn) [Compound 191], the IC50 was 64.6 nM. Under `O=C(NCC(c1cnc(N2CCOCC2)nc1)N1CCC(F)(F)CC1)c1cccc2nc(N3CCOCC3)ccc12` (stereo not drawn) [Compound 269] stands 229 nM. Under `CC(C)N1CCN(c2ccc3c(C(=O)NCC(c4cnc(N5CCCC5)nc4)N4CCOCC4)cccc3n2)CC1` (stereo not drawn) [Compound 285] stands 158 nM; under `O=C(NCC(c1cnc(C(F)(F)F)nc1)N1CCCOCC1)c1cccc2nc(NCCO)ccc12` (stereo not drawn) [Compound 89], 85.1 nM.

For `CC(C)c1ncc(C(CNC(=O)c2cccc3nc(NC4CC4)ccc23)N2CCC(F)(F)CC2)cn1` (stereo not drawn) [Compound 261], the IC50 is 37.2 nM. Under `CC(C)c1ncc(C(CNC(=O)c2cccc3nc(N4CCOCC4)ccc23)N2CCOCC2)cn1` (stereo not drawn) [Compound 230] stands 141 nM; under `CCc1ncc(C(CNC(=O)c2cccc3nc(NC4CC4)ccc23)N2CCC(F)(F)CC2)cn1` (stereo not drawn) [Compound 221], 67.6 nM. For `CC(C)Oc1ncc(C(CNC(=O)c2cccc3nc(NCC4CC4)ccc23)N2CCOCC2)cn1` (stereo not drawn) [Compound 227], the IC50 is 33.1 nM. As to `O=C(NC[C@H](c1cnc(C(F)(F)F)nc1)N1CCOCC1)c1cccc2nc(NC3CC3)ccc12` (single isomer, unassigned) [Compound 174], the IC50 is 66.1 nM.

Regarding `CCOc1ccc2c(C(=O)NCC(c3cnc(C)nc3)N3CCOCC3)cccc2n1` (stereo not drawn) [Compound 121], the IC50 is 251 nM. As to `CCOc1ncc(C(CNC(=O)c2cccc3nc(N4CCN(C(C)C)CC4)ccc23)N2CCC(F)(F)CC2)cn1` (stereo not drawn) [Compound 298], the IC50 is 45.7 nM. With `CC(C)N1CCN(c2ccc3c(C(=O)NCC(c4cnc(N)nc4)N4CCC(F)(F)CC4)cccc3n2)CC1` (stereo not drawn) [Compound 302], the IC50 is 81.3 nM. The result for `O=C(NCC(c1cnc(N2CCOCC2)nc1)N1CCC(F)(F)CC1)c1cccc2nc(NCC3CC3)ccc12` (stereo not drawn) [Compound 252] reads 49 nM; that for `O=C(NCC(c1cnc(NC2CC2)nc1)N1CCC(F)(F)CC1)c1cccc2nc(N3CCOCC3)ccc12` (stereo not drawn) [Compound 189], 110 nM.

Turning to `COCCCNc1ccc2c(C(=O)NCC(c3cnc(C(F)(F)F)nc3)N3CCOCC3)cccc2n1` (stereo not drawn) [Compound 185], the IC50 is 129 nM. The result for `COc1ncc(C(CNC(=O)c2cccc3nc(N4CCCC4)ccc23)N2CCC(F)(F)CC2)cn1` (stereo not drawn) [Compound 286] reads 38 nM; that for `CC(=O)N1CCN(c2ncc(C(CNC(=O)c3cccc4nc(N5CCN(C(C)C)CC5)ccc34)N3CCC(F)(F)CC3)cn2)CC1` (stereo not drawn) [Compound 309], 74.1 nM. The result for `CC(C)c1ncc(C(CNC(=O)c2cccc3nc(NC4CC4)ccc23)N2CCOCC2)cn1` (stereo not drawn) [Compound 231] reads 115 nM.

As to `CCCNc1ccc2c(C(=O)NCC(c3cnc(C(F)(F)F)nc3)N3CCOCC3)cccc2n1` (stereo not drawn) [Compound 184], the IC50 is 61.7 nM. `O=C(NCC(c1cnc(C2CCCC2)nc1)N1CCC(F)(F)CC1)c1cccc2nc(N3CCCC3)ccc12` (stereo not drawn) [Compound 307]: the IC50 was 45.7 nM.

Consider `O=C(NCC(c1cncnc1)N1CCC(F)(F)CC1)c1cccc2nc(N3CCCC3)ccc12` (stereo not drawn) [Compound 208], for which the IC50 was 45.7 nM.

Regarding `CN(C)c1ncc(C(CNC(=O)c2cccc3nc(N4CCOCC4)ccc23)N2CCOCC2)cn1` (stereo not drawn) [Compound 232], the IC50 is 170 nM. The result for `O=C(NCC(c1cnc(-c2ccccc2)nc1)N1CCOCC1)c1cccc2nc(N3CCOCC3)ccc12` (stereo not drawn) [Compound 315] reads 42.7 nM. On to `CC1CN(C(CNC(=O)c2cccc3ncccc23)c2cnc(C(F)(F)F)nc2)CCO1` (stereo not drawn) [Compound 72], for which the IC50 is 302 nM. Under `O=C(NCC(c1ccc(C(F)(F)F)nc1)N1CCC(c2ccccc2)CC1)c1cccc2ncccc12` (stereo not drawn) [Compound 27] stands > 10000 nM; under `O=C(NCC(c1cnc(C(F)(F)F)nc1)N1CCOCC1)c1cccc2nc(N3CCN(CCO)CC3)ccc12` (stereo not drawn) [Compound 197], 120 nM; under `O=C(NCC(c1cnc(-c2ccccc2)nc1)N1CCC(F)(F)CC1)c1cccc2nc(N3CCCC3)ccc12` (stereo not drawn) [Compound 283], 115 nM. The result for `CC(C)N1CCN(c2ccc3c(C(=O)NCC(c4cnc(C5CCCC5)nc4)N4CCC(F)(F)CC4)cccc3n2)CC1` (stereo not drawn) [Compound 213] reads 100 nM. Under `O=C(NCC(c1cnc(C(F)(F)F)nc1)N1CCCOCC1)c1cccc2nc(NC3CC3)ccc12` (stereo not drawn) [Compound 95] stands 44.7 nM; under `CCc1ncc(C(CNC(=O)c2cccc3nc(N4CCCC4)ccc23)N2CCC(F)(F)CC2)cn1` (stereo not drawn) [Compound 282], 75.9 nM; under `O=C(NCC(c1cnc(C(F)(F)F)nc1)N1CCC(F)(F)CC1)c1cccc2nc(NCC3CC3)ccc12` (stereo not drawn) [Compound 42], 38 nM. Turning to `CCc1ncc(C(CNC(=O)c2cccc3nc(N4CCN(C(C)C)CC4)ccc23)N2CCC(F)(F)CC2)cn1` (stereo not drawn) [Compound 292], the IC50 is 115 nM. For the compound `O=C(NCC(c1cccnc1Cl)N1CCC(F)(F)CC1)c1cccc2ncccc12` (stereo not drawn) [Compound 3], the IC50 was 3630 nM.

As for `COc1cc(C(=O)NCC(c2ccc(C(F)(F)F)nc2)N2CCC(F)(F)CC2)nc2ccccc12` (stereo not drawn) [Compound 12], the IC50 was 3240 nM. Under `O=C(NCC(c1cnc(C(F)(F)F)nc1)N1CCCC(F)C1)c1cccc2ncccc12` (stereo not drawn) [Compound 71] stands 30.9 nM; under `O=C(NCC(c1cnc(N2CCCC2)nc1)N1CCC(F)(F)CC1)c1cccc2nc(NCC3CC3)ccc12` (stereo not drawn) [Compound 262], 56.2 nM; under `CCOc1ccc2c(C(=O)NCC(c3cnc(C(F)(F)F)nc3)N3CCOCC3)cccc2n1` (stereo not drawn) [Compound 166], 49 nM. Under `CC(C)N1CCN(c2ccc3c(C(=O)NCC(c4cnc(N5CCOCC5)nc4)N4CCC(F)(F)CC4)cccc3n2)CC1` (stereo not drawn) [Compound 203] stands 67.6 nM. The result for `O=C(NCC(c1cnc(N2CCNCC2)nc1)N1CCC(F)(F)CC1)c1cccc2nc(NC3CC3)ccc12` (stereo not drawn) [Compound 202] reads 115 nM. With `O=C(NCC(c1cnc(C(F)(F)F)nc1)N1CCCCCC1)c1cccc2ncccc12` (stereo not drawn) [Compound 52], the IC50 is 19.1 nM. Under `O=C(NCC(c1cnc(C(F)(F)F)nc1)N1CCC(F)CC1)c1cccc2nc(N3CC(O)C3)ccc12` (stereo not drawn) [Compound 155] stands 64.6 nM. The result for `O=C(NCC(c1cnc(N2CCCC2)nc1)N1CCC(F)(F)CC1)c1cccc2nc(N3CCCC3)ccc12` (stereo not drawn) [Compound 225] reads 102 nM. The result for `CCc1ncc(C(CNC(=O)c2cccc3nc(N4CCN(C(C)C)CC4)ccc23)N2CCOCC2)cn1` (stereo not drawn) [Compound 295] reads 209 nM; that for `O=C(NCC(c1cnc(OC2CCC2)nc1)N1CCC(F)(F)CC1)c1cccc2nc(N3CCOCC3)ccc12` (stereo not drawn) [Compound 239], 53.7 nM. For `O=C(NCC(c1ccccn1)N1CCC(F)(F)CC1)c1cccc2ncccc12` (stereo not drawn) [Compound 25], the IC50 was > 10000 nM. `CCC1CN(c2ccc3c(C(=O)NCC(c4cnc(C(F)(F)F)nc4)N4CCOCC4)cccc3n2)CCN1` (stereo not drawn) [Compound 274]: the IC50 was 145 nM. The result for `CC(C)Oc1ncc(C(CNC(=O)c2cccc3nc(N4CCOCC4)ccc23)N2CCOCC2)cn1` (stereo not drawn) [Compound 241] reads 117 nM; that for `CC(C)Nc1ccc2c(C(=O)NCC(c3cnc(C(F)(F)F)nc3)N3CCOCC3)cccc2n1` (stereo not drawn) [Compound 168], 75.9 nM.
